According to US12564590B2, “Combinations of menin inhibitors and CYP3A4 inhibitors and methods of use thereof” (Syndax Pharmaceuticals, Inc., priority 2020, dated 2026):

Assays:
NPM1c cells = settings: leading to growth arrest, terminal differentiation and cell death; cited from earlier work
[1] = tested on: NPM1c mutant AML patient-derived xenograft models; settings: orally active; cited from earlier work
[2] = tested on: cells harboring MLLr fusions; test: activity in cells harboring MLLr fusions; type: cell-based
[3] = tested on: leukemic xenograft models; test: leukemic xenograft / nonclinical survival models; type: in vivo; settings: in combination with a CYP3A4 inhibitor; for survival benefit in nonclinical models: oral dosing
[4] = molecular target: T1, MLL1 binding pocket on menin (Homo sapiens, UniProt O00255); test: binding to the MLL1 binding pocket on menin
T1 sequence (O00255 1-610): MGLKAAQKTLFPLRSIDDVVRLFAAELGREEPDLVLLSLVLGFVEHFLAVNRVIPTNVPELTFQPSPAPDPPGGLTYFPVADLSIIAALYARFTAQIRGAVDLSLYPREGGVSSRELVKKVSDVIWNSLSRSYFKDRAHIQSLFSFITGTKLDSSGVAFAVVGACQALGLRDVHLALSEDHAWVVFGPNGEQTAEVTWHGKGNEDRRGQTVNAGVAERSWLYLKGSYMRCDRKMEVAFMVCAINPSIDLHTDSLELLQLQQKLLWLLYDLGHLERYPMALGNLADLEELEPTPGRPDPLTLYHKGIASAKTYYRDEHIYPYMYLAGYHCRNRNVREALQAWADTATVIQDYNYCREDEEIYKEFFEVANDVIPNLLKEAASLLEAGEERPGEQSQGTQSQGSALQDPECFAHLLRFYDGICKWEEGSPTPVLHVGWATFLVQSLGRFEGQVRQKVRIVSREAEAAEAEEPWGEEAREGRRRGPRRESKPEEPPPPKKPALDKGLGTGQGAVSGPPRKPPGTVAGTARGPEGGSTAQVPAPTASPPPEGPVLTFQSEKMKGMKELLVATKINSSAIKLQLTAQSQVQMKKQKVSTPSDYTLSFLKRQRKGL

| binding affinity to the MLL1 binding pocket on menin [4] | Compound | effect on HOXA MEIS1 transcription program (NPM1c cells) | anti-leukemic activity [1] | activity across a range of cells harboring MLLr fusions [2] | activity in multiple leukemic xenograft models [3] | survival benefit in nonclinical models [3] |
| --- | --- | --- | --- | --- | --- | --- |
|  | Cc1c(CN2CCC(Nc3ncnc4sc(CC(F)(F)F)cc34)CC2)ccc2c1cc(C#N)n2Cc1cn[nH]c1 [MI-503] | suppress the HOXA MEIS1 transcription program |  |  |  |  |
|  | CNc1nc(NC2CCN(Cc3ccc4c(cc(C#N)n4C[C@H](C)N4CCN(S(C)(=O)=O)CC4)c3C)CC2)c2cc(CC(F)(F)F)sc2n1 [KO-539] |  | robust anti-leukemic activity |  |  |  |
| high affinity | CC(C)N(C(=O)c1cc(F)ccc1Oc1cncnc1N1CC2(CCN(C[C@H]3CC[C@H](NS(C)(=O)=O)CC3)CC2)C1)C(C)C [Formula I, 5-fluoro-N,N-diisopropyl-2-((4-(7-(((1r,4r)-4-(methylsulfonamido)cyclohexyl)methyl)-2,7-diazaspiro[3.5]nonan-2-yl)pyrimidin-5-yl)oxy)benzamide] |  |  | displays activity | robust activity | profound survival benefit |
| high affinity | CCN(C(=O)c1cc(F)ccc1Oc1cncnc1N1CC2(CCN(C[C@H]3CC[C@H](NS(=O)(=O)CC)CC3)CC2)C1)C(C)C [Formula II, N-ethyl-2-((4-(7-(((1r,4r)-4-(ethylsulfonamido)cyclohexyl)methyl)-2,7-diazaspiro[3.5]nonan-2-yl)pyrimidin-5-yl)oxy)-5-fluoro-N-isopropylbenzamide] |  |  | displays activity | robust activity | profound survival benefit |
